From PMC7048748, “Anxiolytic Drug FGIN-1-27 Ameliorates Autoimmunity by Metabolic Reprogramming of Pathogenic Th17 Cells” (Scientific Reports, 2020)

Tested on: Th17 cells
Test: Lipidomics of Th17 cells
Format: cell-based, mouse
Set-up: key to nCE(16:0) / nCE(18:2) / nDCER(22:0) / nDCER[FA14:0] / nFFA(12:0) / nFFA(14:1) / nFFA(18:4) / nCE(22:0) / nCE(22:6) / nCE(24:1) / nCE[FA14:1] / nCE(12:0) / nCE[FA16:0] / nCE[FA17:0] / nCE[FA18:2] / nCE[FA22:6]: mole percent of each fatty acid within its lipid class; key to nDCER[FA18:1]: mole percent of fatty acid within lipid class
Method: Specific cholesterol precursors like desmosterol and oxysterols, such as 7β, 27-dihydroxycholesterol (7β, 27-OHC), have been identified as ligands for RORγt[21],[22] and shown to modulate Th17 differentiation. […] Next, we extended our studies to lipid metabolites and profiled the lipidome of Th17 cells treated with DMSO or FGIN-1-27.
(a) Quantitation of cholesterol esters, triacylglycerols (TAGs), phosphatidylethanolamine (PE) and phosphatidylcholine (PC) in Th17 cells 72 hours after treatment with FGIN-1-27. The error bars represent SD. (b) Heat map showing fatty acid composition (mole percent) for different lipid classes after treatment with FGIN-1-27. (c) Pie charts showing proportions of different fatty acid classes namely PUFAs, MUFAs, ODD and SFAs within the cholesterol esters. (d) Transcript analysis for CD5L 72 hours post treatment with FGIN-1-27. The error bars represent SD.
Th17 cells were differentiated from naïve purified CD4 T cells and treated with either FGIN-1-27 (10 µM) or DMSO during polarization. 10 million cells/treatment were harvested and snap frozen. […] The extracts were concentrated under nitrogen and reconstituted in 0.25 mL of dichloromethane:methanol (50:50) containing 10 mM ammonium acetate. The extracts were placed in vials for infusion-MS analyses, performed on a SelexION equipped Sciex 5500 QTRAP using both positive and negative mode electrospray. Each sample was subjected to 2 analyses, with IMS-MS conditions optimized for lipid classes monitored in each analysis. The 5500 QTRAP was operated in MRM mode to monitor the transitions for over 1,100 lipids from up to 14 lipid classes. Individual lipid species were quantified based on the ratio of signal intensity for target compounds to the signal intensity for an assigned internal standard of known concentration. Lipid class concentrations were calculated from the sum of all molecular species within a class, and fatty acid compositions were determined by calculating the proportion of individual fatty acids within each class.

CCCCCCN(CCCCCC)C(=O)Cc1c(-c2ccc(F)cc2)[nH]c2ccccc12 [FGIN-1-27, N, N-di-n-hexyl 2-(4-fluorophenyl) indole-3-acetamide]
nDAG(15:0/18:2) (Th17 cells, 10 µM): 0.0745
nDAG(16:0/16:0) (Th17 cells, 10 µM): 19.5066
nDAG(16:0/16:1) (Th17 cells, 10 µM): 3.679
nDAG(16:0/18:0) (Th17 cells, 10 µM): 17.7482
nDAG(16:0/18:1) (Th17 cells, 10 µM): 17.8834
nDAG(16:0/18:2) (Th17 cells, 10 µM): 1.3367
nDAG(16:0/18:3) (Th17 cells, 10 µM): 0.06918
nDAG(16:0/20:3) (Th17 cells, 10 µM): 2.168
nDAG(16:0/20:4) (Th17 cells, 10 µM): 0.4462
nDAG(16:0/20:5) (Th17 cells, 10 µM): 0.02527
nDAG(16:0/22:5) (Th17 cells, 10 µM): 0.2343
nDAG(16:0/22:6) (Th17 cells, 10 µM): 0.3639
nDAG(16:1/16:1) (Th17 cells, 10 µM): 0.2383
nDAG(16:1/18:0) (Th17 cells, 10 µM): 0.9172
nDAG(16:1/18:1) (Th17 cells, 10 µM): 1.986
nDAG(16:1/18:2) (Th17 cells, 10 µM): 0.2498
nDAG(16:1/18:3) (Th17 cells, 10 µM): 0.05893
nDAG(16:1/20:0) (Th17 cells, 10 µM): 0.281
nDAG(16:1/20:2) (Th17 cells, 10 µM): 0.05259
nDAG(16:1/20:4) (Th17 cells, 10 µM): 0.0501
nDAG(16:1/22:6) (Th17 cells, 10 µM): 0.1384
nDAG(18:0/18:1) (Th17 cells, 10 µM): 4.793
nDAG(18:0/18:2) (Th17 cells, 10 µM): 1.2841
nDAG(18:0/18:3) (Th17 cells, 10 µM): 0.04099
nDAG(18:0/22:6) (Th17 cells, 10 µM): 0.5166
nDAG(18:1/18:1) (Th17 cells, 10 µM): 5.728
nDAG(18:1/18:2) (Th17 cells, 10 µM): 1.367
nDAG(18:1/20:1) (Th17 cells, 10 µM): 0.6608
nDAG(18:1/20:2) (Th17 cells, 10 µM): 0.298
nDAG(18:1/20:3) (Th17 cells, 10 µM): 0.3254
nDAG(18:1/20:4) (Th17 cells, 10 µM): 0.3507
nDAG(18:1/20:5) (Th17 cells, 10 µM): 0.04364
nDAG(18:1/22:4) (Th17 cells, 10 µM): 0.1472
nDAG(18:1/22:5) (Th17 cells, 10 µM): 0.2687
nDAG(18:1/22:6) (Th17 cells, 10 µM): 0.3639
nDAG(18:2/18:3) (Th17 cells, 10 µM): 0.01794
nDAG(18:2/20:3) (Th17 cells, 10 µM): 0.05124
nDAG(18:2/20:4) (Th17 cells, 10 µM): 0.02818
nDAG(18:2/20:5) (Th17 cells, 10 µM): 0.009187
nDAG(18:2/22:4) (Th17 cells, 10 µM): 0.01566
nDAG(18:2/22:5) (Th17 cells, 10 µM): 0.004594
nDAG(18:2/22:6) (Th17 cells, 10 µM): 0.04424
nDAG(20:0/20:0) (Th17 cells, 10 µM): 0.1788
nDAG[FA12:0] (Th17 cells, 10 µM): 0.4433
nDAG[FA14:0] (Th17 cells, 10 µM): 7.546
nDAG[FA14:1] (Th17 cells, 10 µM): 0.2449
nDAG[FA15:0] (Th17 cells, 10 µM): 0.1819
nDAG[FA16:0] (Th17 cells, 10 µM): 46.2571
nDAG[FA16:1] (Th17 cells, 10 µM): 4.564
nDAG[FA18:0] (Th17 cells, 10 µM): 12.8033
nDAG[FA18:1] (Th17 cells, 10 µM): 21.7078
nDAG[FA18:2] (Th17 cells, 10 µM): 2.36
nDAG[FA18:3] (Th17 cells, 10 µM): 0.09864
nDAG[FA20:0] (Th17 cells, 10 µM): 0.4502
nDAG[FA20:1] (Th17 cells, 10 µM): 0.3304
nDAG[FA20:2] (Th17 cells, 10 µM): 0.1753
nDAG[FA20:3] (Th17 cells, 10 µM): 1.272
nDAG[FA20:4] (Th17 cells, 10 µM): 0.4517
nDAG[FA20:5] (Th17 cells, 10 µM): 0.03905
nDAG[FA22:4] (Th17 cells, 10 µM): 0.08141
nDAG[FA22:5] (Th17 cells, 10 µM): 0.2538
nDAG[FA22:6] (Th17 cells, 10 µM): 0.7392
nDCER (Th17 cells, 10 µM): 0.1046
nDCER(14:0) (Th17 cells, 10 µM): 1.585
nDCER(16:0) (Th17 cells, 10 µM): 30.1076
nDCER(18:0) (Th17 cells, 10 µM): 3.38
nDCER(18:1) (Th17 cells, 10 µM): 0.4226
nDCER(20:0) (Th17 cells, 10 µM): 4.543
nDCER(20:1) (Th17 cells, 10 µM): 0.06424
nDCER(22:0) (Th17 cells, 10 µM): 7.184
nDCER(22:1) (Th17 cells, 10 µM): 1.69
nDCER(24:0) (Th17 cells, 10 µM): 25.6706
nDCER(24:1) (Th17 cells, 10 µM): 24.1916
nDCER(26:0) (Th17 cells, 10 µM): 0.1056
nDCER(26:1) (Th17 cells, 10 µM): 1.0564
nDCER[FA14:0] (Th17 cells, 10 µM): 1.585
nDCER[FA16:0] (Th17 cells, 10 µM): 30.1076
nDCER[FA18:0] (Th17 cells, 10 µM): 3.38
nDCER[FA18:1] (Th17 cells, 10 µM): 0.4226
nDCER[FA20:0] (Th17 cells, 10 µM): 4.543
nDCER[FA20:1] (Th17 cells, 10 µM): 0.06424
nDCER[FA22:0] (Th17 cells, 10 µM): 7.184
nDCER[FA22:1] (Th17 cells, 10 µM): 1.69
nDCER[FA24:0] (Th17 cells, 10 µM): 25.6706
nDCER[FA24:1] (Th17 cells, 10 µM): 24.1916
nDCER[FA26:0] (Th17 cells, 10 µM): 0.1056
nDCER[FA26:1] (Th17 cells, 10 µM): 1.0564
nFFA (Th17 cells, 10 µM): 4.287
nFFA(12:0) (Th17 cells, 10 µM): 1.325
nFFA(14:0) (Th17 cells, 10 µM): 3.367
nFFA(14:1) (Th17 cells, 10 µM): 0.5145
nFFA(15:0) (Th17 cells, 10 µM): 1.588
nFFA(16:0) (Th17 cells, 10 µM): 33.0903
nFFA(16:1) (Th17 cells, 10 µM): 1.393
nFFA(17:0) (Th17 cells, 10 µM): 2.524
nFFA(18:0) (Th17 cells, 10 µM): 24.6299
nFFA(18:1) (Th17 cells, 10 µM): 8.8316
nFFA(18:2) (Th17 cells, 10 µM): 4.005
nFFA(18:3) (Th17 cells, 10 µM): 1.526
nFFA(18:4) (Th17 cells, 10 µM): 0.3971
phosphatidylethanolamine (PE) and phosphatidylcholine (PC) (not statistically significant): modestly increased
lipid metabolites with differential levels (of 1300 lipid metabolites, p < 0.05): 39.6%
